# Measured values published in patent US6207677A, “Piperidine derivatives having anxiolytic effect” (H. Lundbeck A/S, priority 1991, dated 2001).
# Molecular target: sigma receptors
# Assay: Inhibition of 3H-DTG binding to sigma receptors in rat brain in vitro
# Conditions: 2 nM 3H-DTG, rat brain without cerebellum, 25° C., 20 min
# Protocol: INHIBITION OF 3H-DTG BINDING TO SIGMA RECEPTORS IN RAT BRAIN IN VITRO
# By this method the inhibition by drugs of the binding of 2 nM ^3 H-DTG (1,3,di-o-tolyl guanidine) to sigma receptors in homogenates or membranes from rat brain without cerebellum is determined in vitro as modified from Weber et al. Proc. Natl. Acad. Sci. 1986, 83,8784.
# Homogenate: Rats (150-250 g) are decapitated and the brains (without cerebellum) quickly removed and placed on ice, weighed and homogenized in 100 vol ice-cold (0° C.) 50 mM Tris-buffer (pH 7.7) in an ethanol rinsed glass/teflon homogenizer at 0° C. and kept on ice until use.
# P2-membranes: Brains are homogenized in 10 vol 0.32 M sucrose in an ethanol rinsed glass/teflon homogenizer with 10 strokes up and down. The homogenate is centrifuged for 10 min at 900×gm at 4° C. The supernatant is decanted and centrifuged for 20 min at 50,000 gm at 4° C. The resulting pellet is resuspended in 10 vol ice-cold […] Tris-buffer (pH 7.7) and incubated for 30 min. at 37° C. The membrane suspension is then centrifuged for further 20 min. at 50,000 gm at 4° C. The pellet is resuspended in 50 vol. of ice-cold Tris-buffer and used immediately.
# 0.5 ml 50 mM Tris-buffer (pH 7.7), 0.25 ml displacer (6×100 μM DTG, 6× [test compound], or Tris-buffer), and 0.25 ml 6×2 nM. ^3 H-DTG are mixed into 5 ml s plastic test tubes and kept at 4° C. until use. The binding reaction is initiated by mixing 0.5 ml tissue suspension into this solution and incubate at 25° C. for 20 min. Glass fiber filters (Whatman GF/B) are placed on the filter machine which is then closed tightly. Just before filtration vacuum is applied, and the filters washed with 0.1% PEI solution from a spray bottle followed by one wash with Tris-buffer.
# The binding reaction is stopped by filtration of the assay mixture at reduced pressure (750 mbar) followed by further 3 washes with 5 ml ice-cold Tris-buffer. The filters are then placed in counting vials and 4 ml scintillation solution added. The vials are counted in a Beckmann scintillation counter.
# 50 mM Tris-buffer pH 7.7: 7.38 g Trizma--7.7 plus distilled H2 O ad 1 liter. 100 ml 10% polyethylenimine (PEI): 100 ml dest. H2 O is added to approx. 20 g 50% PEI which is solubilized by stirring and heating. Diluted (1+99) before use. 6×2 nM ^3 H-DTG: The exact volume depends on the actual concentration of the batch, but is made as close as possible to 12 nM. The containers for the radioactive solution is rinsed in 96% ethanol before use.
# ^3 H-DTG was obtained from NEN Research Products, Du Pont Denmark. Specific activity 62.3 Ci/mmol.
# The known sigma receptor ligands BMY 14802 and rimcazole were included in the test for comparison purposes.
row,Structure (SMILES),IC50 [nM]
1,"Fc1ccc(-n2cc(CCCCN3CCC4(CC3)COCc3ccccc34)c3ccccc32)cc1 [Compound 9a, 1'-[4-[1-(4-Fluorophenyl)-3-indolyl]-1-butyl]spiro[1H-2-benzopyran-4(3H), 4'-piperidine]]",0.34
2,"Fc1ccc(-n2cc(CCCCN3CCC4(CC3)OCc3ccccc34)c3cc(F)ccc32)cc1 [Compound 9b, 1'-[4-[5-Fluoro-1-(4-fluorophenyl)-3-indolyl]-1-butyl]spiro[isobenzofuran-1(3H), 4'-piperidine]]",0.06
3,"Fc1ccc(-n2cc(CCCCN3CCC4(CC3)SCc3ccccc34)c3ccccc32)cc1 [Compound 9c, 1'-[4-[1-(4-Fluorophenyl)-3-indolyl]-1-butyl]spiro[benzo[c]thiophene-1(3H),4'-piperidine]]",0.14
4,Fc1ccc(-n2cc(CCCCN3C4CCC3CC3(C4)OCc4ccccc43)c3ccccc32)cc1 (stereo not shown) [Compound 9d],26
5,"Fc1ccc(-n2cc(CCCCN3CCC4(CC3)OCc3cccc(F)c34)c3ccccc32)cc1 [Compound 9g, 7-Fluoro-1'-[4-[1-(4-fluorophenyl)-3-indolyl]-1-butyl]spiro[isobenzofuran-1(3H), 4'-piperidine]]",4.2
6,"Cc1ccc2c(c1)COC21CCN(CCCCc2cn(-c3ccc(F)cc3)c3ccccc23)CC1 [Compound 9h, 1'-[4-[1-(4-Fluorophenyl)-3-indolyl]-1-butyl]-5-methylspiro[isobenzofuran-1(3H),4'-piperidine]]",2.3
7,"Cc1ccc(-n2cc(CCCCN3CCC4(CC3)COCc3ccccc34)c3ccccc32)cc1 [Compound 9i, 1'-(4-(1-(4-Methylphenyl)-3-indolyl]-1-butyl]spiro[1H-2-benzopyran-4(3H), 4'-piperidine]]",0.62
8,"Fc1ccc2c(c1)c(CCCCN1CCC3(CC1)OCc1ccccc13)cn2-c1ccsc1 [Compound 9j, 1'-[4-[5-Fluoro-1-(3-thienyl)-3-indolyl]-1-butyl]-spiro[isobenzofuran-1(3H),4'-piperidine]]",0.11
9,"c1cncc(-n2cc(CCCCN3CCC4(CC3)COCc3ccccc34)c3ccccc32)c1 [Compound 9k, 1'-[4-[1-(3-Pyridinyl)-3-indolyl]-1-butyl]spiro[1H-2-benzopyran-4(3H), 4'-piperidine]]",0.92
10,"Fc1ccc(C2CCN(CCCCc3cn(-c4ccc(F)cc4)c4ccccc34)CC2)cc1 [Compound 9l, 1-(4-Fluorophenyl)-3-[4-(4-(4-fluorophenyl)-1-piperidyl)-1-butyl]indole]",0.14
11,"Cc1ccc(C2CCN(CCCCc3cn(-c4ccc(F)cc4)c4ccccc34)CC2)cc1 [Compound 9m, 1-(4-Fluorophenyl)-3-[4-(4-(4-methylphenyl)-1-piperidyl)-1-butyl]indole]",1.6
12,"CC(C)c1ccc(C2CCN(CCCCc3cn(-c4ccc(F)cc4)c4ccccc34)CC2)cc1 [Compound 9n, 1-(4-Fluorophenyl)-3-[4-(4-(4-isopropylphenyl)-1-piperidyl)-1-butyl]indole]",6.3
13,"CN(C)c1ccc(C2CCN(CCCCc3cn(-c4ccc(F)cc4)c4ccccc34)CC2)cc1 [Compound 9o, 1-(4-Fluorophenyl)-3-[4-(4-(4-dimethylaminophenyl)-1-piperidyl)-1-butyl]indole]",6.7
14,"Fc1ccc(C2CCN(CCCCc3cn(-c4ccccc4)c4ccccc34)CC2)cc1 [Compound 9p, 1-Phenyl-3-[4-(4-(4-fluorophenyl)-1-piperidyl)-1-butyl]indole]",0.28
15,"c1ccc2c(c1)COC21CCN(CCCCc2cn(-c3nccs3)c3ccccc23)CC1 [Compound 9q, 1'-[4-(1-(2-Thiazolyl)-3-indolyl)-1-butyl]spiro[isobenzofuran-1(3H) ,4'-piperidine]]",0.12
16,"Fc1ccc(-n2cc(CCCCN3CCC4(CC3)OCc3c(F)cccc34)c3ccccc32)cc1 [Compound 9s, 4-Fluoro-1'-[4-[1-(4-fluorophenyl)-3-indolyl]-1-butyl]spiro[isobenzofuran-1(3H),4'-piperidine]]",56
17,"Fc1ccc(-n2cc(CCCCN3CCC(c4cccc(C(F)(F)F)c4)CC3)c3ccccc32)cc1 [Compound 9t, 1-(4-Fluorophenyl)-3-[4-(4-(3-trifluoromethylphenyl)-1-piperidyl)-1-butyl]indole]",3.2

row,Structure (SMILES),IC50 [nM]
1,"c1ccc2c(c1)COC21CCN(CCCCc2csc3ccccc23)CC1 [Compound 10a, 1'-(4-(Benzo[b]thiophen-3-yl)-1-butyl)spiro[isobenzofuran-1(3H),4'-piperidine]]",0.09
2,"c1ccc2c(c1)COC1(CCN(CCCCc3csc4ccccc34)CC1)C2 [Compound 10b, 1,4-Dihydro-1'-(4-(benzo[b]thiophen-3-yl)-1-butyl)spiro[3H-2-benzopyran-3,4'-piperidine]]",1.3
3,"Cc1ccc2scc(CCCCN3CCC4(CC3)OCc3ccccc34)c2c1 [Compound 10c, 1'-(4-(5-Methylbenzo[b]thiophen-3-yl)-1-butyl)spiro[isobenzofuran-1(3H),4'-piperidine]]",0.35
4,"Fc1ccc(C2CCN(CCCC3COc4ccc(F)cc43)CC2)cc1 (stereo not shown) [Compound 11a, 2,3-Dihydro-5-fluoro-3-[3-(4-(4-fluorophenyl)-1-piperidinyl)-1-propyl]benzofuran]",0.31
5,"Fc1ccc2c(c1)C(CCCCN1CCC3(CC1)OCc1ccccc13)CO2 (stereo not shown) [Compound 12, 1'-(4-(2,3-Dihydro-5-fluoro-benzofuran-3-yl)-1-butyl]-spiro[isobenzofuran-1(3H),4'-piperidine]]",0.3
6,"c1ccc2c(c1)NCC2CCCCN1CCC2(CC1)Oc1ccccc1O2 (stereo not shown) [Compound 13a, 1'-[4-(2,3-Dihydro-3-indolyl)-1-butyl]spiro[1,3-benzodioxole-2,4'-piperidine]]",3.7
7,"c1ccc2c(c1)COC21CCN(CCCCC2CNc3ccccc32)CC1 (stereo not shown) [Compound 13b, 1'-[4-(2,3-Dihydro-3-indolyl)-1-butyl]spiro[isobenzofuran-1(3H),4'-piperidine]]",1
8,"c1ccc2c(c1)COCC21CCN(CCCCC2CNc3ccccc32)CC1 (stereo not shown) [Compound 13c, 1'-[4-(2,3-Dihydro-3-indolyl)-1-butyl]spiro[1H-2-benzopyran-4(3H) ,4'-piperidine]]",4.8
9,"COc1ccccc1C1CCN(CCCCC2CNc3ccccc32)CC1 (stereo not shown) [Compound 13d, 2,3-Dihydro-3-[4-(4-(2-methoxyphenyl)-1-piperidinyl)-1-butyl]indol]",2.1
10,"Fc1ccc(-n2cc(OCCN3CCC4(CC3)OCc3ccccc34)c3cc(Cl)ccc32)cc1 [Compound 14a, 1'-[2-[5-Chloro-1-(4-fluorophenyl)-3-indolyloxy]-1-ethyl]spiro[isobenzofuran-1(3H)piperidine]]",24
11,Fc1ccc(C2CCN(CCOc3cn(-c4ccc(F)cc4)c4ccc(Cl)cc34)CC2)cc1 [Compound 14b],3.8
12,"Fc1ccc2occ(CCCN3CCC4(CC3)OCc3ccccc34)c2c1 [Compound 15, 1'-[3-(5-Fluorobenzofuran-3-yl)-1-propyl)spiro[isobenzofuran-1(3H) ,4'-piperidine]]",0.42
13,"Fc1ccc2occ(CCCCN3CCC4(CC3)OCc3ccccc34)c2c1 [Compound 16, 1'-[4-(5-Fluorobenzofuran-3-yl)-1-butyl]-spiro[isobenzofuran-1(3H) ,4'-piperidine]]",0.15
14,"Fc1ccc(-n2nc(CCCCN3CCC4(CC3)OCc3ccccc34)c3cc(C(F)(F)F)ccc32)cc1 [Compound 17a, 1'-[4-[1-(4-Fluorophenyl)-5-trifluoromethylindazol-3-yl]-1-butyl]spiro[isobenzofuran-1(3H),4'-piperidine]]",0.11
15,"FC(F)(F)c1ccc2[nH]nc(CCCCN3CCC4(CC3)OCc3ccccc34)c2c1 [Compound 18a, 1'-[4-(5-Trifluoromethylindazol-3-yl)-1-butyl]-spiro[isobenzofuran-1(3H),4'-piperidine]]",0.56
16,"c1ccc2c(c1)COC21CCN(CCCCc2noc3ccccc23)CC1 [Compound 19a, 1'-(4-(1,2-Benzisoxazol-3-yl)-1-butyl)spiro[isobenzofuran-1(3H) ,4'-piperidine]]",0.08
17,"Fc1ccc(C2CCN(CCCCc3noc4ccccc34)CC2)cc1 [Compound 19b, 3-[4-(4-(4-Fluorophenyl)-1-piperidyl)-1-butyl]-1,2-benzisoxazole]",0.49
